Data reported in patent publication US9486507B2, “Pro-coagulant compounds and methods of use thereof” (priority 2011, dated 2016).
Where “and” joins values, the source holds several entries; their conditions need not be identical. Identical values can stand only once.

Columns and labels:
Format in all cases: biochemical
FVIIa = target: T1, FVIIa (Homo sapiens, UniProt P08709); assay: FXa generation assay with human FVIIa; conditions: absence of PL
T1 construct: The two-chain Factor VIIa is a polypeptide produced from FVII by hydrolysis of the Arg152-Ile153 peptide bond of FVII; purchased Haematologic Technologies
T1 sequence (P08709 61-212 limits assumed): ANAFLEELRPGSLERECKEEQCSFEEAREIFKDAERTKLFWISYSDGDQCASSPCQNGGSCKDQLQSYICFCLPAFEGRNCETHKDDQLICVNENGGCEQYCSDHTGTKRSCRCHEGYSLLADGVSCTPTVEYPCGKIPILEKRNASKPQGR
T1 sequence (P08709 213-466 limits assumed): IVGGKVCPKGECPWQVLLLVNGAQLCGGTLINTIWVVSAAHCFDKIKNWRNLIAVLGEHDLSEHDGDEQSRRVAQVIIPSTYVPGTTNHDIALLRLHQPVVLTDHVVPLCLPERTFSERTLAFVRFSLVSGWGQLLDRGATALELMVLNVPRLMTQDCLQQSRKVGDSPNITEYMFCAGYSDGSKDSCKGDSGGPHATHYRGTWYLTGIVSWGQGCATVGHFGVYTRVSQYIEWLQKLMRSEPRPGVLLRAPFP
Experimental: Similarly, in order to measure the catalytic activity of FVIIa, a FXa generation assay measuring the ability of the compounds of the present disclosure to enhance the catalytic activity of FVIIa was established. The difference between the two assays was that the final concentration of 10 nM hFIXa was replaced with 10 nM hFVIIa. The remaining reagents and assay procedures described above were unchanged.

[1] = test system: FVIII deficient human plasma; assay: Thrombin generation assay (TGA) in FVIII-deficient plasma; conditions: for Thrombin Above Baseline (nM): HRF FVIII-deficient plasma (1)
[2] = target: T2, FXa or the prothrombinase complex (Homo sapiens, UniProt P00742); assay: FXa / prothrombinase activity in purified thrombin generation assay; conditions: 1 μM; FXa 0.05 ug/mL, with or without FV
T2 construct: Under these conditions FIXa cleaves the zymogen FX into the active form FXa
T2 sequence (P00742 41-179 limits assumed): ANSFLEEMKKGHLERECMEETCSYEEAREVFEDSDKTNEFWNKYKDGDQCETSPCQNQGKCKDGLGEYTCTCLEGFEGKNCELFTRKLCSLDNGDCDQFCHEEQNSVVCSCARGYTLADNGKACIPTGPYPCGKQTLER
T2 sequence (P00742 235-488 limits assumed): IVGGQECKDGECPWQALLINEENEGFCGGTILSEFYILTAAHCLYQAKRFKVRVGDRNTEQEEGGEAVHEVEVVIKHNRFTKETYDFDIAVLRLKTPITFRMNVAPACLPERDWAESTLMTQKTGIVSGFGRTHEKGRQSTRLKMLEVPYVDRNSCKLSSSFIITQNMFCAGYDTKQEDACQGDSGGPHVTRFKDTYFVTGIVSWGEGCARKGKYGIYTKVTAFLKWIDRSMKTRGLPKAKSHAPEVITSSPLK
Experimental: In another experiment it was determined whether or not the compounds of the present disclosure directly enhance the activity of FXa or the prothrombinase complex.

[3] = test system: FVIII deficient human plasma; assay: Rotational thromboelastometry (ROTEM) in FVIII-deficient human plasma
Experimental: (§1) Compounds of the present disclosure were tested by rotational thromboelastometry to evaluate coagulation parameters such as clotting time (CT), α-angle, clot formation time (CFT), maximum clot firmness (MCF). Briefly, lyophilized and citrated FVIII deficient human plasma (Siemens) was reconstituted with 1 mL of distilled water, allowed to stand for 20 min at RT and mixed well before use. Alternatively, an aliquot of citrated (non-lyophilized) FVIII deficient human plasma (HRF, George King, Precision Biologics, or real-time donors) was thawed for 10 min in a 37° C. water bath and when needed centrifuged at 2800 g for 5 min at 25° C. FVIII deficient plasma was spiked with lyophilized platelets (Helena Laboratories, final concentration 0.5×10^8 cells/ml) and compounds, FVIII, or both compound and FVIII. Dilutions of compounds of the present disclosure and controls, such as FVIII, were prepared in PBS (—Ca, —Mg). Next, 300 μl of the spiked plasma was transferred to a ROTEM cup already containing 20 μl of StarTEM (concentrated calcium chloride solution) and 20 μl of lipidated TF (American Diagnostica, final concentration 10 fM) or Kaolin (Sigma-Aldrich, final concentration 0.4 μg/ml) and recording was initiated. The cups were maintained at 37° C. during the testing.

[4] = test system: FIX-deficient human plasma; assay: ROTEM in FIX-deficient human plasma
Experimental: as §1

[5] = test system: canine FVIII-deficient plasma; assay: ROTEM in canine FVIII-deficient plasma; conditions: canine HemA plasma, lyophilized human platelets, 10 fM lipTF
FIXa [6] = target: T3, FIXa (Homo sapiens, UniProt P00740); assay: FXa generation assay with human FIXa; design: purchased Haematologic Technologies
T3 sequence (P00740 47-191 limits assumed): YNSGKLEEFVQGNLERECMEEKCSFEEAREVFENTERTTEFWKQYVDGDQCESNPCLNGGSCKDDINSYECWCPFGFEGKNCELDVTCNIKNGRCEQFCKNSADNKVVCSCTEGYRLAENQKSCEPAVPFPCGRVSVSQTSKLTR
T3 sequence (P00740 227-461 limits assumed): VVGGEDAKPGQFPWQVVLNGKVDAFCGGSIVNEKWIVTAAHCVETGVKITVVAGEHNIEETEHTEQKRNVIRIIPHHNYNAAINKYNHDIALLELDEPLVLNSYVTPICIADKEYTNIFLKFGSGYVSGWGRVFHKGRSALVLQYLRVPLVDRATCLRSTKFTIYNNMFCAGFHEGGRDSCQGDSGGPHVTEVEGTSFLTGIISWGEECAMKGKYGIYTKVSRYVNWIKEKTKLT
Source text: FXa generation was utilized to assess the capability of the compounds of the present disclosure to enhance the catalytic activities of FIXa and/or FVIIa.
To measure the catalytic activity of FIXa, FIXa was mixed with FX and phospholipids in the presence of calcium chloride. Under these conditions FIXa cleaves the zymogen FX into the active form FXa.
The generation of FXa is monitored by the change in absorbance of the reaction at 405 nm due to the presence of a cleavable FXa chromogenic substrate (S-2765; Z-D-Arg-Gly-Arg-pNA; cleavage of p-nitroaniline). […] The kit contains all the FXa generation components, however, FIXa and FX obtained from this kit are from a bovine origin and were replaced with purified human FIXa or human FVIIa and human FX (Haematologic Technologies).
The assay was also modified to enhance the screening throughput. Instead of the sequential addition, all the assay components were mixed and added simultaneously to the purified compound to be assayed. A 125 μl reaction mix of the assay components was prepared in the buffer supplied by the manufacturer (50 mM Tris 7.3, and 1% BSA). […] The reaction mix (125 ul) was then added to 25 ul of compound diluted in water in a Costar-3651 flat bottom 96-well plate. […] The absorbance was monitored over a period of 1 hour at 405 nm using a plate reader (Synergy 2, Biotek).
The 405 nm absorbance data were then analyzed to obtain the slope of the first derivative which reflects the rate of change in absorbance. The first derivative slope data for each compound concentration were plotted against the compound concentration and fitted to a four-parameter equation to obtain the EC50 and Vmax values for each compound tested.

FIXa [7] = target: T3, FIXa; assay: Heparin accelerated FIXa-AT complex formation assay; design: purchased Haematologic Technologies; conditions: for % FIXa-AT complex formation: with heparin
Experimental: Competition studies between the pro-coagulant peptides and heparin: compounds of the present disclosure were tested in a heparin competition assay in an effort to further map the peptide's binding site on FIXa. FIXa inactivation by antithrombin (AT) was assessed by gel electrophoresis in the presence of heparin and varying procoagulant peptide concentrations. The rate of FIXa-AT complex formation was quantified over a 15 minute time course. […] The samples were incubated at 37° C. in a water bath and 12.5 μL aliquots were removed at each time point (0.5, 2, 5, 10, 15 min) and immediately mixed with 12.5 μL SDS 2× non-reducing sample buffer. The samples were heated at 90° C. for 3 min and loaded onto a 4-20% BioRad gel (20 μL/lane). The gel was run at 300V for 25 min, and the bands were quantified using Quantity One software from BioRad.

[8] = FVIII-deficient plasma (containing platelets), 10 μM
[9] = FVIII-deficient plasma, compound 5 2.5 μM + FVIIa-Fc 10 IU/mL
[10] = FVIII-deficient plasma, compound 5 2.5 μM + FVIIa-Fc 20 IU/mL
[11] = human HemA plasma, 5 μM, anti-FVIII pab +
[12] = human HemA plasma, 5 μM, anti-FVIII pab −
[13] = human HemA plasma, 10 μM, anti-FVIII pab +
[14] = human HemA plasma, 10 μM, anti-FVIII pab −
[15] = FIX-deficient plasma (containing platelets), 10 μM
[16] = FIX-deficient plasma, compound 5 2.5 μM + FIX-Fc 0.25 IU/mL
[17] = human HemB plasma, lyophilized platelets, 10 fM TF, 5 μM
[18] = human HemB plasma, lyophilized platelets, 10 fM TF, 10 μM
[19] = human HemB plasma, 5 μM, anti-FIX pab +
[20] = human HemB plasma, 5 μM, anti-FIX pab −
[21] = human HemB plasma, 10 μM, anti-FIX pab −

## rRAPGKLTCLASYCWLFWTGIA [Compound 5]
FVIIa
  increase of FVIIa activity, % of control: about 10%
[1]; 0.1 pM lipidated TF, low amounts of rFVIII (FIG. 2)
  additive effect with FVIII on thrombin generation: shows additive thrombin generation activity with FVIII
[1]; 10 μM compound 5, 0.1 pM lipTF
  amount of thrombin generated, as rFVIII equivalent: about 0.2 IU/mL
[1]; 5 or 10 μM compound 5, 0.1 pM lipTF
  amount of thrombin generated, compared with FVIII: > 0.1 U/mL
[1]; 2.5 μM
  Thrombin Above Baseline (nM): + (1-10 nM (1) or 1-29 nM (2) (+))
[1]; 5 μM
  Thrombin Above Baseline (nM): + (1-10 nM (1) or 1-29 nM (2) (+))
[1]; 10 μM
  Thrombin Above Baseline (nM): ++ (11-20 nM (1) or 30-59 nM (2) (++))
[1]; 20 μM
  Thrombin Above Baseline (nM): ++ (11-20 nM (1) or 30-59 nM (2) (++))
[1]; compound 5 at 10 μM and 5 μM, 0.1 pM lipTF (FIG. 3)
  lag time: shorter lag time than 0.1 or 0.25 U/mL of FVIII
[2]
  catalytic activity of FXa or the prothrombinase complex: did not substantially increase the catalytic activity of FXa or the prothrombinase complex
[3]; [8]
  Clotting time: 277 s and 298 s
  α-angle, degrees: 34 degrees and 27 degrees
[3]; [9]
  Clotting time: 303.5 s
  α-angle: 38.5 degrees
[3]; [10]
  Clotting time: 115 s
  α-angle: 63 degrees
[3]; compound 5 2.5 and 5 μM, 0 to about 16 mM calcium
  calcium dependence of procoagulant effect (clotting time): sensitive to the calcium concentration
[3]; [11]
  Clotting time: 197 s and 194 s
  α-angle, degrees: 48 degrees and 53 degrees
[3]; [12]
  Clotting time: 154 s and 164 s
  α-angle, degrees: 51 degrees and 58 degrees
[3]; [13]
  Clotting time: 108 s and 110 s
  α-angle, degrees: 67 degrees and 69 degrees
[3]; [14]
  Clotting time: 101 s and 105 s
  α-angle, degrees: 70 degrees and 68 degrees
[4]; [15]
  Clotting time, sec: 1,311 sec and 1,328 sec
  α-angle, degrees: 15 degrees and 19 degrees
[4]; [16]
  Clotting time: 876.5 s
  α-angle: 39.5 degrees
[4]; [17]
  Clotting time: 836 s and 810 s
  α-angle, degrees: 24 degrees and 20 degrees
[4]; [18]
  Clotting time: 804 s and 773 s
  α-angle, degrees: 22 degrees and 21 degrees
[4]; [19]
  Clotting time, sec: 1,660 sec and 1,661 sec
  α-angle, degrees: 9 degrees
[4]; [20]
  Clotting time, sec: 1,420 sec and 1,556 sec
  α-angle, degrees: 11 degrees and 12 degrees
[4]; human HemB plasma, 10 μM, anti-FIX pab +
  α-angle, degrees: 13 degrees and 10 degrees
[4]; [21]
  Clotting time, sec: 1,182 sec and 1,194 sec
  α-angle, degrees: 12; 12 degrees
[5]; 0.625 μM
  Clotting time: 687 s and 539 s
  α-angle, degrees: 12 degrees
[5]; 2.5 μM
  Clotting time: 346 s and 356 s
  α-angle, degrees: 15; 15 degrees
[5]; 5 μM
  Clotting time: 295 s and 369 s
  α-angle, degrees: 29 degrees and 28 degrees
[5]; 10 μM
  Clotting time: 286 s and 294 s
  α-angle, degrees: 58 degrees and 57 degrees
FIXa [6]; FXa generation assay, 10 nM hFIXa, 100 nM hFX, class symbols
  Vmax: (+++) ((+++)>2)
FIXa [6]; absence of PL
  increase of FIXa catalytic activity, % of control: about 80%
FIXa [7]; absence of heparin
  inactivation of FIXa by AT: unaffected
FIXa [7]; heparin 100 nM, compound 5 0.1, 1, 10 μM
  heparin-catalyzed FIXa-AT complex formation: inhibited the FIXa-AT complex formation in a concentration-dependent manner
FIXa [7]; Compound 5 0.1 μM, 0.5 min
  % FIXa-AT complex formation: 57%
FIXa [7]; Compound 5 0.1 μM, 2 min
  % FIXa-AT complex formation: 72%
FIXa [7]; Compound 5 0.1 μM, 5 min
  % FIXa-AT complex formation: 82%
FIXa [7]; Compound 5 0.1 μM, 10 min
  % FIXa-AT complex formation: 82%
FIXa [7]; Compound 5 0.1 μM, 15 min
  % FIXa-AT complex formation: 83%
FIXa [7]; Compound 5 1 μM, 0.5 min
  % FIXa-AT complex formation: 30%
FIXa [7]; Compound 5 1 μM, 2 min
  % FIXa-AT complex formation: 45%
FIXa [7]; Compound 5 1 μM, 5 min
  % FIXa-AT complex formation: 55%
FIXa [7]; Compound 5 1 μM, 10 min
  % FIXa-AT complex formation: 70%
FIXa [7]; Compound 5 1 μM, 15 min
  % FIXa-AT complex formation: 74%
FIXa [7]; Compound 5 10 μM, 0.5 min
  % FIXa-AT complex formation: 18%
FIXa [7]; Compound 5 10 μM, 2 min
  % FIXa-AT complex formation: 28%
FIXa [7]; Compound 5 10 μM, 5 min
  % FIXa-AT complex formation: 41%
FIXa [7]; Compound 5 10 μM, 10 min
  % FIXa-AT complex formation: 54%
FIXa [7]; Compound 5 10 μM, 15 min
  % FIXa-AT complex formation: 62%
